Read-outs that look alike come from different tables or passages of the source.
What was measured:
[1] = molecular target: IMP-1 (Serratia marcescens, UniProt P52699); experiment: biochemical; assay type: biochemical; settings: fluorescence assay, CCF2-FA substrate, 2 pM enzyme, 2 hours at 25° C.; read-out: IMP-1 IC50
Procedure, shortened: (§1)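 IC50 values derive from 4-parameter fits of percent inhibition against inhibitor concentration on semi-log axes. Activity was monitored by fluorescence with the CCF2-FA substrate after a 2-hour, 25° C incubation of compound, enzyme and substrate.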

[2] = molecular target: NDM-1 (Klebsiella pneumoniae, UniProt C7C422); experiment: biochemical; assay type: biochemical; settings: fluorescence assay, CCF2-FA substrate, 1 pM enzyme, 2 hours at 25° C.; read-out: NDM-1 IC50
NDM-1, sequence (C7C422 whole entry, looked up, species assumed): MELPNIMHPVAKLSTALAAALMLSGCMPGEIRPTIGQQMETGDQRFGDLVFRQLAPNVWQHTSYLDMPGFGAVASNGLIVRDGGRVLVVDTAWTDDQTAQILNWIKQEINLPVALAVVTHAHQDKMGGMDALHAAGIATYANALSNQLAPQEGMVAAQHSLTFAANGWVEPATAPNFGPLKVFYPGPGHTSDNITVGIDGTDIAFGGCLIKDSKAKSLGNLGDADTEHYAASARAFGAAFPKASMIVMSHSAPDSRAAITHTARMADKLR
Procedure, shortened: as §1

[3] = molecular target: VIM-1 (Pseudomonas aeruginosa (strain ATCC 15692 / DSM 22644 / CIP 104116 / JCM 14847 / LMG 12228 / 1C / PRS 101 / PAO1), UniProt A0A0F7KYQ8); experiment: biochemical; settings: CCF2-FA substrate, 30 pM enzyme, 2 hours at 25° C.
Procedure, shortened: as §1

[4] = tested on: Escherichia coli expressing NDM-1 (CLB30005, CLB30016); assay type: cell-based; settings: NDM-1 strain, with imipenem 1 μg/ml, 95% inhibition of growth
Procedure, shortened: (§2)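 Growth by absorbance after 22–24 h at 35°C defined the read-out, with imipenem fixed at 1 μg/ml alongside compound. Inocula came from overnight blood-agar colonies at 35°C, resuspended in saline and diluted 1:100 in 1.1×CAMHB.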

[5] = tested on: Klebsiella pneumoniae expressing VIM-1 (IHMA599644); assay type: cell-based; settings: VIM-1 strain IHMA599644, with imipenem 1 μg/ml, 95% inhibition of growth
Procedure, shortened: as §2

[6] = tested on: Serratia marcescens expressing IMP-1 (CL5741); assay type: cell-based; settings: IMP-1 strain CL5741, with imipenem 1 μg/ml, 95% inhibition of growth
Procedure, shortened: as §2

[7] = tested on: Pseudomonas aeruginosa efflux+ (MB9798), IMP-1; assay type: cell-based; parameters: Concentration of metallo-β-lactamase inhibitor which restores susceptibility of efflux + (MB9798) strain to imipenem: unit not given here; settings: efflux+ MB9798; imipenem at 2 μg/mL; in the presence of a class A, C, D serine β-lactamase inhibitor closely related to relebactam
Procedure, shortened: (§3)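 PAO1 pair, broth microdilution; fixed β-lactam (imipenem/ceftazidime) at ~CLSI breakpoint + fixed class A/C BLI for AmpC; serial MBLi titration; endpoint = MBLi conc. restoring susceptibility; MB9798:MB9799 ratio = efflux liability.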

[8] = tested on: Pseudomonas aeruginosa efflux− (MB9799), IMP-1; assay type: cell-based; settings: efflux− MB9799; imipenem at 2 μg/mL; in the presence of a class A, C, D serine β-lactamase inhibitor closely related to relebactam
Procedure, shortened: as §3

[9] = tested on: Pseudomonas aeruginosa MB9798 vs MB9799; settings: fold difference between efflux+ (MB9798) and efflux− (MB9799) strains; imipenem at 2 μg/mL
Procedure, shortened: as §3

[10] = fluorescence assay, read-out: VIM-1 IC50

IMP-1, sequence (P52699 whole entry, looked up, species assumed): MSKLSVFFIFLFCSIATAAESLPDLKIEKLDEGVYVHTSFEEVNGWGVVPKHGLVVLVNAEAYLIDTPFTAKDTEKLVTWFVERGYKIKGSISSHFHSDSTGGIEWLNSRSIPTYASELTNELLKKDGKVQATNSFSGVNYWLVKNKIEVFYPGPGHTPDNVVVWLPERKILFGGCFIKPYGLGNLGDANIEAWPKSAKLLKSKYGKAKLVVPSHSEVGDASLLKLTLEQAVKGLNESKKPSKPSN

Row | SMILES | IC50 [1] [nM] | IC50 [2] [nM] | IC50 ([3]; VIM-1 IC50, fluorescence assay) [nM] | Escherichia coli MITC95 [4] [µM] | Klebsiella pneumoniae MITC95 [5] [µM] | Serratia marcescens MITC95 [6] [µM] | Concentration of metallo-β-lactamase inhibitor which restores susceptibility of efflux + (MB9798) strain to imipenem [7] | Concentration of metallo-β-lactamase inhibitor which restores susceptibility of efflux − (MB9799) strain to imipenem [8] | Efflux ratio [9] | IC50 [3, 10] [nM]
1 | Nc1nc(-c2cccc(-c3ccc(S(=O)(=O)N[C@@H]4CCNC4)c(S(N)(=O)=O)c3-c3nn[nH]n3)c2)c[nH]1 [Example 428] | 0.407 | 0.0473 | 0.133 | 0.3906 | 1.563 | 0.7813 | 0.7813 | 0.7813 | 1.00 | –
2 | NCC(CN)NS(=O)(=O)c1ccc(-c2cccc3[nH]c(N)nc23)c(-c2nn[nH]n2)c1S(N)(=O)=O [Example 429] | 0.489 | 0.0819 | – | 0.5208 | 1.563 | 1.563 | 0.7813 | 0.7813 | 1.00 | 0.228
3 | NCC(CN)NS(=O)(=O)c1ccc(-c2cccc3ccc(N)nc23)c(-c2nn[nH]n2)c1S(N)(=O)=O [Example 430] | 0.102 | 0.0325 | – | 1.172 | 1.563 | 1.563 | 1.563 | 1.563 | 1.00 | 0.103
4 | NCCNCc1sc(N)nc1-c1cccc(-c2ccc(S(=O)(=O)N[C@@H]3CCNC3)c(S(N)(=O)=O)c2-c2nnn[nH]2)c1 [Example 433] | 1.33 | 0.51 | – | 0.7813 | 1.563 | 1.563 | 1.563 | 0.7813 | 2.00 | 0.404
5 | NC[C@H](N)CNS(=O)(=O)c1ccc(-c2cccc(-c3c[nH]c(N)n3)c2)c(-c2nn[nH]n2)c1S(N)(=O)=O [Example 434] | 1.53 | 0.2 | – | 0.7813 | 1.563 | 1.563 | 1.563 | 0.7813 | 2.00 | 0.337
6 | NCC(CN)NS(=O)(=O)c1ccc(-c2cccc(-c3c[nH]c(N)n3)c2)c(-c2nn[nH]n2)c1S(N)(=O)=O [Example 435] | 1.78 | 0.46 | – | 1.563 | 3.125 | 3.125 | 3.125 | 1.563 | 2.00 | 1.21
7 | NCC(CN)NS(=O)(=O)c1ccc(-c2cccc3sc(N)nc23)c(-c2nn[nH]n2)c1S(N)(=O)=O [Example 436] | 0.103 | 0.0246 | – | 0.7813 | 1.563 | 1.563 | 0.7813 | 0.7813 | 1.00 | 0.116
8 | NCC(CN)NS(=O)(=O)c1ccc(-c2ccnc(-c3cnc(N)[nH]3)c2)c(-c2nnn[nH]2)c1S(N)(=O)=O [Example 437, 4-(2-(2-Amino-1H-imidazol-5-yl)pyridin-4-yl)-N^1-(1,3-diaminopropan-2-yl)-3-(1H-tetrazol-5-yl)benzene-1,2-disulfonamide] | 2.41 | 1.18 | 0.952 | 0.7813 | 3.125 | 3.125 | 1.563 | 0.7813 | 2.00 | –
9 | NCC(CN)NS(=O)(=O)c1ccc(-c2cccc(-c3cnc(N)[nH]3)n2)c(-c2nnn[nH]2)c1S(N)(=O)=O [Example 438, 4-(6-(2-Amino-1H-imidazol-5-yl)pyridin-2-yl)-N^1-(1,3-diaminopropan-2-yl)-3-(1H-tetrazol-5-yl)benzene-1,2-disulfonamide] | 17.9 | 2.04 | 3.91 | 3.125 | 3.125 | 3.125 | 6.25 | 3.125 | 2.00 | –
10 | Nc1ncc(-c2cccc(-c3ccc(S(=O)(=O)N[C@@H]4CCNC4)c(S(N)(=O)=O)c3-c3nnn[nH]3)n2)[nH]1 [Example 439, (R)-4-(6-(2-Amino-1H-imidazol-5-yl)pyridin-2-yl)-N^1-(pyrrolidin-3-yl)-3-(1H-tetrazol-5-yl)benzene-1,2-disulfonamide] | 6.72 | 0.254 | – | 3.125 | 1.563 | 1.563 | 6.25 | 1.563 | 4.00 | 0.629
11 | Nc1ncc(-c2cc(-c3ccc(S(=O)(=O)N[C@@H]4CCNC4)c(S(N)(=O)=O)c3-c3nnn[nH]3)ccn2)[nH]1 [Example 440, (R)-4-(2-(2-Amino-1H-imidazol-5-yl)pyridin-4-yl)-N^1-(pyrrolidin-3-yl)-3-(1H-tetrazol-5-yl)benzene-1,2-disulfonamide] | 3.96 | 0.333 | 0.571 | 0.7813 | 1.563 | 1.563 | 1.563 | 0.7813 | 2.00 | –
12 | C[C@H](N)Cc1nc2c(-c3ccc(S(N)(=O)=O)c(S(N)(=O)=O)c3-c3nn[nH]n3)cccc2[nH]1 [Example 442, (S)-4-(2-(2-aminopropyl)-1H-benzo[d]imidazol-4-yl)-3-(2H-tetrazol-5-yl)benzene-1,2-disulfonamide] | 1.33 | 0.431 | 0.249 | 1.563 | 3.125 | 1.563 | 0.7813 | 1.563 | 0.50 | –
13 | NCCNS(=O)(=O)c1ccc(-c2cccc3[nH]c([C@@H]4C[C@@H](O)CN4)nc23)c(-c2nn[nH]n2)c1S(N)(=O)=O [Example 444, N1-(2-aminoethyl)-4-(2-((2S,4R)-4-hydroxypyrrolidin-2-yl)-1H-benzo[d]imidazol-4-yl)-3-(2H-tetrazol-5-yl)benzene-1,2-disulfonamide] | 1.59 | 0.236 | 0.235 | 1.563 | 3.125 | 3.125 | 1.563 | 1.563 | 1.00 | –

From US10221163B2 (priority 2015, dated 2019)
